Assay results published in patent US20260001910A1, “PEPTIDES AND USES THEREOF” (PreveCeutical Medical Inc., priority 2021, published 2026).

Tests used:
Test in all cases: Real time RT-PCR mRNA expression
Type in all cases: cell-based, human
MMP-2 mRNA = tested on: MMP-2 mRNA
From the text: (§1) The real-time reverse transcription polymerase chain reaction (RT-PCR) uses fluorescent reporter molecules to monitor the production of amplification products during each cycle of the PCR reaction. This combines the nucleic acid amplification and detection steps into one homogeneous assay and use of appropriate chemistries and data analysis eliminates the need for Southern blotting or DNA sequencing for amplicon identification. Its simplicity, specificity and sensitivity, together with its potential for high throughput and the ongoing introduction of new chemistries, more reliable instrumentation and improved protocols, has made real-time RT-PCR the benchmark technology for the detection and/or comparison of RNA levels.′
(§2) In order to detect and quantify the expression of specific genes at mRNA level, real-time reverse transcriptase polymerase chain reaction (Real time RT-PCR) was performed. Total RNA of samples was isolated and purified using the PureLink® RNA Mini Kit (Life technologies). The concentration of total RNA was detected by NanoDrop 2000 Spectrophotometer (Thermo Scientific). The total RNA (2000 ng) was reverse transcribed using the High-Capacity cDNA Reverse Transcription Kit (Applied Biosystems™).
(§3) The primers of target genes were TaqMan™ Gene Expression Assay for human PLAU (Hs01547054_m1), MMP-2 (Hs01548727_ml), MMP-9 (Hs00957562_m1), Snail-1 (Hs00195591_m1), Snail-2 (Hs00161904_m1), N-cadherin (Hs00983056_m1) and Twist (Hs01675818_s1). Relative quantification was done by reference to 18S ribosomal RNA (18S rRNA) and analysed using the comparative critical threshold (Ct) method
(§4) The mRNA expression of MMPs was measured using qRT-PCR. This was tested three independent times; the results are shown in Tables 8, 9 and 10 for U251, U87 cells and 081024 cells respectively. Results are reported as percent of the control cells (no treatment). SEQ ID NO.

MMP-9 mRNA = tested on: MMP-9 mRNA
From the text: as §1, §2, §3, §4

uPA (PLAU) mRNA = tested on: uPA (PLAU) mRNA
From the text: as §1, §2, §3, §4

[1] = 081024 cells, baseline expression level = 1
[2] = U87 cells, baseline expression level = 1
[3] = U251 cells, relative to untreated control, 18S rRNA reference

`CC(C)C[C@@H](NC(=O)[C@@H](Cc1ccccc1)NC(=O)CNC(=O)CNC(=O)[C@H](N)Cc1ccc(O)cc1)C(=O)N[C@H](CCCNC(=N)N)C(=O)N[C@H](CCCNC(=N)N)C(N)=O` [SEQ ID NO. 1, tyr-Gly-Gly-phe-leu-arg-arg-NH2] was tested, and the “MMP-2 mRNA expression” value (MMP-2 mRNA; [1]) was 0.72, the “MMP-2 mRNA expression” value (MMP-2 mRNA; [2]) was 0.74 and the “effect on mRNA expression of MMP-2 (in words)” value (MMP-2 mRNA; U251, U87 and 081024 cells) was “did not have a statistically significant effect”. The “MMP-2 mRNA expression” value (MMP-2 mRNA; [3]) was 0.95, the “MMP-9 mRNA expression” value (MMP-9 mRNA; [1]) was 0.54 and the “MMP-9 mRNA expression” value (MMP-9 mRNA; [2]) was 0.71. For the same compound, the “effect on mRNA expression of MMP-9 (in words)” value (MMP-9 mRNA; U251, U87 and 081024 cells) was “did not have a statistically significant effect”, the “MMP-9 mRNA expression” value (MMP-9 mRNA; [3]) was 1.10 and the “uPA mRNA expression” value (uPA (PLAU) mRNA; [1]) was 0.67. For the same compound, the “uPA mRNA expression” value (uPA (PLAU) mRNA; [2]) was 1.20, the “effect on mRNA expression of uPA (in words)” value (uPA (PLAU) mRNA; U251, U87 and 081024 cells) was “did not have a statistically significant effect” and the “uPA mRNA expression” value (uPA (PLAU) mRNA; [3]) was 0.82.
